The values below come from PubChem BioAssay AID2060901 (Molecular Pharmacology Branch, DTP, NCI, 2025).

What is called IC50 is the point on the concentration scale where inhibition reaches its midpoint. A word on the viability, T/C: it is the result in the treated group divided by that in the control group, in per cent.

The experiment deals with 422866-222-R5-J1-PDC complex spheroids viability. The experiment can be described thus: Anticancer human tumor 422866-222-R5-J1-PDC patient-derived pancreatic adenocarcinoma cell line growth inhibition [RAS]. As to conditions: for IC50: curve of first compound; for viability, T/C: stronger effect = lower value. In outline: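 Agents were tested in combination matrices in half-log decrements from a top concentration at or near clinical Cmax (10 microM if undetermined). Targets were multi-cell spheroids of tumour lines plus HUVEC and MSC stromal cells.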

The structures appear in SMILES notation. Where “and” joins values, the source holds several entries; their conditions need not be identical. Identical values can stand only once.
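Further: spheroids exposed to compounds for 7 days.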
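Wherever viability, T/C is given: 100% = DMSO vehicle control viability.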

With `CCc1c2c(nc3ccc(O)cc13)-c1cc3c(c(=O)n1C2)COC(=O)[C@]3(O)CC` + C#Cc1c(F)ccc2cc(O)cc(-c3ncc4c(N5CC6CCC(C5)N6)nc(OCC56CCCN5CC(F)C6)nc4c3F)c12, the 50% inhibitory concentration (IC50) (second compound 0.0316 µM) is 2850 pM; the IC50 (second compound 0.1 µM) was 2740 pM; the IC50 (second compound 0.316 µM) was determined as 95200 pM; the IC50 (second compound 1 µM) was < 949 pM; the concentration for half-maximal inhibition (IC50) (second compound 3.16 µM) is < 949 pM; the 50% inhibitory concentration (IC50) (second compound 10 µM) was < 949 pM. Besides, the viability, T/C was 80.6% (second compound 0.0316 µM, first compound 0.000949 µM); 49.4% (second compound 0.0316 µM, first compound 0.003 µM); 39.9% (second compound 0.0316 µM, first compound 0.00949 µM); 41.9% (second compound 0.0316 µM, first compound 0.03 µM); 48.5% (second compound 0.0316 µM, first compound 0.0949 µM); 45.5% (second compound 0.0316 µM, first compound 0.3 µM). Further, the viability, T/C was 75.2% (second compound 0.1 µM, first compound 0.000949 µM); 49.4% (second compound 0.1 µM, first compound 0.003 µM); 35.2% (second compound 0.1 µM, first compound 0.00949 µM); 49.8% (second compound 0.1 µM, first compound 0.03 µM); 58.4% (second compound 0.1 µM, first compound 0.0949 µM); 36.1% (second compound 0.1 µM, first compound 0.3 µM). Moreover, the viability, T/C is 65.4% (second compound 0.316 µM, first compound 0.000949 µM); 36.4% (second compound 0.316 µM, first compound 0.003 µM); 49.8% (second compound 0.316 µM, first compound 0.00949 µM); 56.5% (second compound 0.316 µM, first compound 0.03 µM); 49.2% (second compound 0.316 µM, first compound 0.0949 µM); 34.7% (second compound 0.316 µM, first compound 0.3 µM). For the same compound, the viability, T/C runs as follows: (second compound 1 µM, first compound 0.000949 µM) 48.6%; (second compound 1 µM, first compound 0.003 µM) 35.9%; (second compound 1 µM, first compound 0.00949 µM) 35.4%; (second compound 1 µM, first compound 0.03 µM) 38.2%; (second compound 1 µM, first compound 0.0949 µM) 53.3%; (second compound 1 µM, first compound 0.3 µM) 31.2%. In addition, the viability, T/C (second compound 3.16 µM, first compound 0.000949 µM) was 26.3%; the viability, T/C (second compound 3.16 µM, first compound 0.003 µM) is 28.7%; the viability, T/C (second compound 3.16 µM, first compound 0.00949 µM) was 22.4%; the viability, T/C (second compound 3.16 µM, first compound 0.03 µM) was 22.9%; the viability, T/C (second compound 3.16 µM, first compound 0.0949 µM) is 25.6%; the viability, T/C (second compound 3.16 µM, first compound 0.3 µM) is 25.1%. Also, the viability, T/C is 23% (second compound 10 µM, first compound 0.000949 µM); 21% (second compound 10 µM, first compound 0.003 µM); 20.7% (second compound 10 µM, first compound 0.00949 µM); 18.1% (second compound 10 µM, first compound 0.03 µM); 19.5% (second compound 10 µM, first compound 0.0949 µM); 13.5% (second compound 10 µM, first compound 0.3 µM).
For `CC(Nc1ccc2c(c1)OCCn1cc(N3C(=O)OCC3C(F)F)nc1-2)C(N)=O` (stereo not given), the viability, T/C was 75.3% [middle of 4 runs] (compound 0.0316 µM); 53.4% [middle of 4 runs] (compound 0.1 µM); 42.6% [middle of 4 runs] (compound 0.316 µM); 39.3% [middle of 4 runs] (compound 1 µM); 26.1% and 23.8% and 27% (2×) (compound 10 µM).
Take `CCc1c2c(nc3ccc(O)cc13)-c1cc3c(c(=O)n1C2)COC(=O)[C@]3(O)CC` + CCn1c(-c2cccnc2C(C)OC)c2c3cc(ccc31)N1CCOC(CC(NC(=O)C(C(C)C)N(C)C(=O)C3(F)CCN(C(=O)C#CC(C)(C)N(C)C)CC3)C(=O)N3CCCC(N3)C(=O)OCC(C)(C)C2)C1: the IC50 is, setting by setting: (second compound 0.000949 µM) < 949 pM; (second compound 0.003 µM) < 949 pM; (second compound 0.00949 µM) < 949 pM; (second compound 0.03 µM) < 949 pM; (second compound 0.0949 µM) < 949 pM; (second compound 0.3 µM) < 949 pM. For the same compound, the viability, T/C (second compound 0.000949 µM, first compound 0.000949 µM) was 28.2%; the viability, T/C (second compound 0.000949 µM, first compound 0.003 µM) is 22.7%; the viability, T/C (second compound 0.000949 µM, first compound 0.00949 µM) is 26.9%; the viability, T/C (second compound 0.000949 µM, first compound 0.03 µM) was 22%; the viability, T/C (second compound 0.000949 µM, first compound 0.0949 µM) is 19.6%; the viability, T/C (second compound 0.000949 µM, first compound 0.3 µM) was 15.6%. The viability, T/C (second compound 0.003 µM, first compound 0.000949 µM) is 24.8%; the viability, T/C (second compound 0.003 µM, first compound 0.003 µM) is 15.5%; the viability, T/C (second compound 0.003 µM, first compound 0.00949 µM) is 15.5%; the viability, T/C (second compound 0.003 µM, first compound 0.03 µM) was 14.1%; the viability, T/C (second compound 0.003 µM, first compound 0.0949 µM) was 15.5%; the viability, T/C (second compound 0.003 µM, first compound 0.3 µM) is 15.1%. The viability, T/C (second compound 0.00949 µM, first compound 0.000949 µM) is 22.1%; the viability, T/C (second compound 0.00949 µM, first compound 0.003 µM) is 17.7%; the viability, T/C (second compound 0.00949 µM, first compound 0.00949 µM) is 17.7%; the viability, T/C (second compound 0.00949 µM, first compound 0.03 µM) is 15%; the viability, T/C (second compound 0.00949 µM, first compound 0.0949 µM) is 14.6%; the viability, T/C (second compound 0.00949 µM, first compound 0.3 µM) is 12.3%. In addition, the viability, T/C is 19.5% (second compound 0.03 µM, first compound 0.000949 µM); 15.7% (second compound 0.03 µM, first compound 0.003 µM); 14.8% (second compound 0.03 µM, first compound 0.00949 µM); 13.9% (second compound 0.03 µM, first compound 0.03 µM); 13.2% (second compound 0.03 µM, first compound 0.0949 µM); 10.7% (second compound 0.03 µM, first compound 0.3 µM). In addition, the viability, T/C is 15.9% (second compound 0.0949 µM, first compound 0.000949 µM); 13% (second compound 0.0949 µM, first compound 0.003 µM); 11.3% (second compound 0.0949 µM, first compound 0.00949 µM); 12.3% (second compound 0.0949 µM, first compound 0.03 µM); 11.1% (second compound 0.0949 µM, first compound 0.0949 µM); 9.62% (second compound 0.0949 µM, first compound 0.3 µM). Besides, the viability, T/C is 13.9% (second compound 0.3 µM, first compound 0.000949 µM); 14.3% (second compound 0.3 µM, first compound 0.003 µM); 11.5% (second compound 0.3 µM, first compound 0.00949 µM); 10.7% (second compound 0.3 µM, first compound 0.03 µM); 10.3% (second compound 0.3 µM, first compound 0.0949 µM); 7% (second compound 0.3 µM, first compound 0.3 µM).
Turning to `O=C(c1ccc(F)c(F)c1Nc1ccc(I)cc1F)N1CC(O)([C@@H]2CCCCN2)C1`, the viability, T/C reads like this: (compound 0.00316 µM) 98.2% [middle of 4 runs]; (compound 0.01 µM) 74.8% [middle of 4 runs]; (compound 0.0316 µM) 60.7% [middle of 4 runs]; (compound 0.1 µM) 57% [middle of 4 runs]; (compound 0.316 µM) 45.2% [middle of 4 runs]; (compound 1 µM) 39.2% [middle of 4 runs].
For `CCc1c2c(nc3ccc(O)cc13)-c1cc3c(c(=O)n1C2)COC(=O)[C@]3(O)CC`, the viability, T/C is 77.2% [middle of 4 runs] (compound 0.000949 µM); 51.2% [middle of 4 runs] (compound 0.003 µM); 51.5% [middle of 4 runs] (compound 0.00949 µM); 53.4% [middle of 4 runs] (compound 0.03 µM); 41.4% [middle of 4 runs] (compound 0.3 µM).
